In the test the target is T1, F508del (Homo sapiens, UniProt P13569, DEL508-508).
T1 construct: expressed in transfected cells
The test can be described thus: Protocol 1: membrane potential optical assay (FLIPR III, voltage sensing dye), identification of potentiator compounds. The format is cell-based. The following applies: Table 3, compounds of Table 1. Put shortly:
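NIH 3T3 fibroblasts stably expressing F508del were cultured at 27° C for 24 hrs for temperature correction, then treated with compounds or DMSO and loaded with a voltage-sensing redistribution dye. Forskolin added with a Cl⁻ gradient activated the channel; membrane-potential fluorescence on FLIPR III reported increased gating.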

T1 sequence (P13569 with tags, fused parts or gaps DEL508-508): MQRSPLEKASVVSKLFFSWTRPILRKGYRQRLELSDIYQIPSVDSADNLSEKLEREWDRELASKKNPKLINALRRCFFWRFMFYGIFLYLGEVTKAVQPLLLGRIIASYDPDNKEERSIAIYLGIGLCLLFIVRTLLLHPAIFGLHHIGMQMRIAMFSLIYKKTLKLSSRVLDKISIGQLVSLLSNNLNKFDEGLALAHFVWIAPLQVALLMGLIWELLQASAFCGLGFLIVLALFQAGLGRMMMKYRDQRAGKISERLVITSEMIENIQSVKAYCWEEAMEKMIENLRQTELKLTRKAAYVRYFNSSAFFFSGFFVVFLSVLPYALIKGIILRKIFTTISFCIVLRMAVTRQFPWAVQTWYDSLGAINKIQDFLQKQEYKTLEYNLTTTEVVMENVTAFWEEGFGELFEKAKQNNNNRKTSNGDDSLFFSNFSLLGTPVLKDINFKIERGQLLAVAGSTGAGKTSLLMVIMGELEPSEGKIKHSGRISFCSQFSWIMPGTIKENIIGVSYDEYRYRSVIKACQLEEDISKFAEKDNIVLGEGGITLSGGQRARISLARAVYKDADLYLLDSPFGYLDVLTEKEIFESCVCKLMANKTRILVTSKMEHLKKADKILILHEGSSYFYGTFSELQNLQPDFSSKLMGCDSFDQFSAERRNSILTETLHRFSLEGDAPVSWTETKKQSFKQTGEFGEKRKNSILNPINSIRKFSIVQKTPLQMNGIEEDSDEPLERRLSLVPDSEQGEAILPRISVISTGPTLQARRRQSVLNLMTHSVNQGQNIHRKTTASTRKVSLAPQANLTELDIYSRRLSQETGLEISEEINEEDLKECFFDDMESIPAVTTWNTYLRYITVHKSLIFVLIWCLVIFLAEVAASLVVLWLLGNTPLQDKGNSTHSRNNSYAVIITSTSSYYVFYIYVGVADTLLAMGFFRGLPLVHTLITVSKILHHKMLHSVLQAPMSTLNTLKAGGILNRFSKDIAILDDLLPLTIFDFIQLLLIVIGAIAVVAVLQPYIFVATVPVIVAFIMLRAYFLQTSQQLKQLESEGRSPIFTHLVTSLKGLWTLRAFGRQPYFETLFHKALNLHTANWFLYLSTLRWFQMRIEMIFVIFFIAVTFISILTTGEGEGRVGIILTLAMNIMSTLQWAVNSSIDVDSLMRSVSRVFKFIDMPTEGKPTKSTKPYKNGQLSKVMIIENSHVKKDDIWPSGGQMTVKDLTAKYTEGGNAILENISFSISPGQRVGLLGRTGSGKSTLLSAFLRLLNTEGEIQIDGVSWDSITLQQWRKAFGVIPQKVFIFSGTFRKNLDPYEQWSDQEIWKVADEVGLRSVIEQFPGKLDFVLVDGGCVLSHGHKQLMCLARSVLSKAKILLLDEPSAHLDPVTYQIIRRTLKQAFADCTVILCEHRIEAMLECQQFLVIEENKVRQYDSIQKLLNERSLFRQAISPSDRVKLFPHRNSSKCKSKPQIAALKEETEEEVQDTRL

On to `CC(C)C(C)c1ccc(C(=O)NS(=O)(=O)c2cccnc2N)c(N2C[C@@H](C)CC2(C)C)n1` (stereo partly drawn) [Compound 1911, N-[(2-amino-3-pyridyl)sulfonyl]-6-(1,2-dimethylpropyl)-2-[(4S)-2,2,4-trimethylpyrrolidin-1-yl]pyridine-3-carboxamide], for which the EC30 result is reported as “+++ (“+++” means <3 uM)”.

For `CC[C@H]1CN(c2nc(-c3cc(F)cc(OCC(C)C)c3)ccc2C(=O)NS(=O)(=O)c2cccc(N)n2)C(C)(C)C1` [Compound 1611, N-[(6-amino-2-pyridyl)sulfonyl]-2-[(4R)-4-ethyl-2,2-dimethyl-pyrrolidin-1-yl]-6-(3-fluoro-5-isobutoxy-phenyl)pyridine-3-carboxamide], the EC30 entry is “+++ (“+++” means <3 uM)”.

Consider `CC[C@]1(C)C[C@H](C)CN1c1nc(-c2cc(F)cc(OCC(C)C)c2)ccc1C(=O)NS(=O)(=O)c1cccc(N)n1` (single isomer, unassigned) [Compound 1817, N-[(6-amino-2-pyridyl)sulfonyl]-2-(2-ethyl-2,4-dimethyl-pyrrolidin-1-yl)-6-(3-fluoro-5-isobutoxy-phenyl)pyridine-3-carboxamide], for which the EC30 entry was “+++ (“+++” means <3 uM)”.

For `CC(C)(C)c1cc(C(=O)NS(=O)(=O)c2cccc(N)c2)n(Cc2cccc3cc[nH]c23)n1` [Compound 1256, N-(3-aminophenyl)sulfonyl-5-tert-butyl-2-(1H-indol-7-ylmethyl)pyrazole-3-carboxamide], the EC30 result was “++ (“++” means between 3 uM and 10 uM)”.

Regarding `COc1c(C)cccc1-c1ccc(C(=O)NS(=O)(=O)c2ccc[nH]c2=O)c(N2C[C@@H](C)CC2(C)C)n1` [Compound 1880, 6-(2-methoxy-3-methyl-phenyl)-N-[(2-oxo-1H-pyridin-3-yl)sulfonyl]-2-[(4S)-2,2,4-trimethylpyrrolidin-1-yl]pyridine-3-carboxamide], the EC30 result is “++ (“++” means between 3 uM and 10 uM)”.

With `CC1CN(c2ncccc2C(=O)NS(=O)(=O)c2cccc(Nc3ccc(C(C)(C)C)cc3)n2)C(C)(C)C1` (stereo not drawn) [Compound 1756, N—[[6-(4-tert-butylanilino)-2-pyridyl]sulfonyl]-2-(2,2,4-trimethylpyrrolidin-1-yl)pyridine-3-carboxamide], the EC30 entry was “+++ (“+++” means <3 uM)”.

For `Cc1cc(C)c(Oc2nc(N3[C@H](C)CC[C@@H]3C)ccc2C(=O)NS(=O)(=O)c2cccc(N)n2)c(C)c1` [Compound 1494, N-[(6-amino-2-pyridyl)sulfonyl]-6-[(2R,5S)-2,5-dimethylpyrrolidin-1-yl]-2-(2,4,6-trimethylphenoxy)pyridine-3-carboxamide], the EC30 entry is “+++ (“+++” means <3 uM)”.

In the case of `C[C@@H]1CN(c2nc(C3CCOCC3)ccc2C(=O)NS(=O)(=O)c2cccnc2N)C(C)(C)C1` [Compound 1850, N-[(2-amino-3-pyridyl)sulfonyl]-6-tetrahydropyran-4-yl-2-[(4S)-2,2,4-trimethylpyrrolidin-1-yl]pyridine-3-carboxamide], the EC30 result is reported as “+++ (“+++” means <3 uM)”.

As for `CC(C)Oc1ccc(-c2ccc(C(=O)NS(=O)(=O)c3cccc(N)n3)c(N3CCCC3Cc3ccccc3)n2)cn1` (stereo not drawn) [Compound 994, N-[(6-amino-2-pyridyl)sulfonyl]-2-(2-benzylpyrrolidin-1-yl)-6-(6-isopropoxy-3-pyridyl)pyridine-3-carboxamide], the EC30 result was “+++ (“+++” means <3 uM)”.

`CC(C)CCOc1ccc(-c2ccc(C(=O)NS(=O)(=O)c3cccc(N)n3)c(N3CC(C)CC3(C)C)n2)cn1` (stereo not drawn) [Compound 848, N-[(6-amino-2-pyridyl)sulfonyl]-6-(6-isopentyloxy-3-pyridyl)-2-(2,2,4-trimethylpyrrolidin-1-yl)pyridine-3-carboxamide]: the EC30 entry is listed as “+++ (“+++” means <3 uM)”.

In the case of `CC(C)Oc1ccc(-c2ccc(C(=O)NS(=O)(=O)c3cccc(N)n3)c(N3CC[C@H](C)C3)n2)cn1` [Compound 1081, N-[(6-amino-2-pyridyl)sulfonyl]-6-(6-isopropoxy-3-pyridyl)-2-[(3S)-3-methylpyrrolidin-1-yl]pyridine-3-carboxamide], the EC30 result was “++ (“++” means between 3 uM and 10 uM)”.

On to `Cc1cc(C)c(Oc2nc(C(C)(C)C)ccc2C(=O)N=S(N)(=O)c2cccc(N)n2)c(C)c1` (stereo not drawn) [Compound 1602, N-[amino-(6-amino-2-pyridyl)-oxo-$1^6-sulfanylidene]-6-tert-butyl-2-(2,4,6-trimethylphenoxy)pyridine-3-carboxamide], for which the EC30 result is given as “+++ (“+++” means <3 uM)”.

`CC(C)COc1cc(F)cc(-c2ccc(C(=O)NS(=O)(=O)c3ccn[nH]3)c(N3CCCC(C(F)(F)F)C3)n2)c1` (stereo not drawn) [Compound 907, 6-(3-fluoro-5-isobutoxy-phenyl)-N-(1H-pyrazol-5-ylsulfonyl)-2-[3-(trifluoromethyl)-1-piperidyl]pyridine-3-carboxamide]: the EC30 entry is recorded as “+++ (“+++” means <3 uM)”.

In the case of `CC(C)Oc1ccc(-c2ccc(C(=O)NS(=O)(=O)c3ccn[nH]3)c(N3C[C@H](C)C[C@@H](C)C3)n2)cn1` [Compound 990, 2-[(3R,5R)-3,5-dimethyl-1-piperidyl]-6-(6-isopropoxy-3-pyridyl)-N-(1H-pyrazol-5-ylsulfonyl)pyridine-3-carboxamide], the EC30 entry is listed as “+++ (“+++” means <3 uM)”.

Take `CC(C)CS(=O)(=O)N1CCC=C(c2ccc(C(=O)NS(=O)(=O)c3cccc(N)n3)c(N3C[C@@H](C)CC3(C)C)n2)C1` [Compound 1882, N-[(6-amino-2-pyridyl)sulfonyl]-6-(1-isobutylsulfonyl-3,6-dihydro-2H-pyridin-5-yl)-2-[(4S)-2,2,4-trimethylpyrrolidin-1-yl]pyridine-3-carboxamide]: the EC30 result is recorded as “+ (“+” means greater than 10 uM)”.

With `COCCOCc1cccc(-c2cnc(N3CC(C)CC3(C)C)c(C(=O)NS(=O)(=O)c3cccc(N)n3)c2)c1` (stereo not drawn) [Compound 1943, N-[(6-amino-2-pyridyl)sulfonyl]-5-[3-(2-methoxyethoxymethyl)phenyl]-2-(2,2,4-trimethylpyrrolidin-1-yl)pyridine-3-carboxamide], the EC30 result is “++ (“++” means between 3 uM and 10 uM)”.

`CCOc1cc(-c2ccc(C(=O)NS(=O)(=O)c3ccc[nH]c3=O)c(Oc3c(C)cc(C)cc3C)n2)ccc1F` [Compound 917, 6-(3-ethoxy-4-fluoro-phenyl)-N-[(2-oxo-1H-pyridin-3-yl)sulfonyl]-2-(2,4,6-trimethylphenoxy)pyridine-3-carboxamide]: the EC30 entry was “++ (“++” means between 3 uM and 10 uM)”.

For the compound `CC1CN(c2nc(C(C)(C)C)c(-c3ccccc3)cc2C(=O)NS(=O)(=O)c2cccc(N)n2)C(C)(C)C1` (stereo not drawn) [Compound 1364, N-[(6-amino-2-pyridyl)sulfonyl]-6-tert-butyl-5-phenyl-2-(2,2,4-trimethylpyrrolidin-1-yl)pyridine-3-carboxamide], the EC30 entry was “+++ (“+++” means <3 uM)”.

As for `CCOc1cccc2c1CN(Cc1c(C)cc(C)cc1C)C2(C)C(=O)NS(=O)(=O)c1ccc(F)c(N)c1` (stereo not drawn) [Compound 1394, N-(3-amino-4-fluoro-phenyl)sulfonyl-4-ethoxy-1-methyl-2-[(2,4,6-trimethylphenyl)methyl]isoindoline-1-carboxamide], the EC30 entry was “+++ (“+++” means <3 uM)”.

In the case of `COC1CCN(c2nc(C(C)(C)C)ccc2C(=O)NS(=O)(=O)c2cccc(N)n2)CC1` [Compound 1164, N-[(6-amino-2-pyridyl)sulfonyl]-6-tert-butyl-2-(4-methoxy-1-piperidyl)pyridine-3-carboxamide], the EC30 result is “++ (“++” means between 3 uM and 10 uM)”.

With `CC(C)COc1cc(F)cc(-c2ccc(C(=O)NS(=O)(=O)c3ccccc3O)c(N3C[C@@H](C)CC3(C)C)n2)c1` [Compound 1836, 6-(3-fluoro-5-isobutoxy-phenyl)-N-(2-hydroxyphenyl)sulfonyl-2-[(4S)-2,2,4-trimethylpyrrolidin-1-yl]pyridine-3-carboxamide], the EC30 result is reported as “+++ (“+++” means <3 uM)”.

`Cc1cc(C)c(Oc2nc(-c3ccc(CN(C)C)cc3)ccc2C(=O)NS(=O)(=O)c2cccc(N)n2)c(C)c1` [Compound 962, N-[(6-amino-2-pyridyl)sulfonyl]-6-[4-(dimethylaminomethyl)phenyl]-2-(2,4,6-trimethylphenoxy)pyridine-3-carboxamide]: the EC30 entry was “++ (“++” means between 3 uM and 10 uM)”.

For the compound `CCN(CC)c1ccc(-c2ccc(C(=O)NS(=O)(=O)c3cccc(N)n3)c(N3CC(C)CC3(C)C)n2)cn1` (stereo not drawn) [Compound 796, N-[(6-amino-2-pyridyl)sulfonyl]-6-[6-(diethylamino)-3-pyridyl]-2-(2,2,4-trimethylpyrrolidin-1-yl)pyridine-3-carboxamide], the EC30 result was “+++ (“+++” means <3 uM)”.

In the case of `Cc1ccc(-c2ccc(C(=O)NS(=O)(=O)c3nccnc3N)c(-c3ccc(C)cc3)n2)cc1` [Compound 820, N-(3-aminopyrazin-2-yl)sulfonyl-2,6-bis(p-tolyl)pyridine-3-carboxamide], the EC30 entry was “+ (“+” means greater than 10 uM)”.

Take `CCOc1ccc(Oc2cccc(S(=O)(=O)NC(=O)c3cccnc3N3CC(C)CC3(C)C)n2)cc1` (stereo not drawn) [Compound 1924, N—[[6-(4-ethoxyphenoxy)-2-pyridyl]sulfonyl]-2-(2,2,4-trimethylpyrrolidin-1-yl)pyridine-3-carboxamide]: the EC30 entry is given as “+++ (“+++” means <3 uM)”.

For `CC(C)=C(C)c1cnc(N2CC(C)CC2(C)C)c(C(=O)NS(=O)(=O)c2cccc(N)n2)c1` (stereo not drawn) [Compound 1590, N-[(6-amino-2-pyridyl)sulfonyl]-5-(1,2-dimethylprop-1-enyl)-2-(2,2,4-trimethylpyrrolidin-1-yl)pyridine-3-carboxamide], the EC30 result is on record as “+++ (“+++” means <3 uM)”.

Consider `Cc1ccc(Oc2nc3c(cc2C(=O)NS(=O)(=O)c2cc[nH]n2)CCCC3(C)C)c(C)c1` [Compound 1246, 2-(2,4-dimethylphenoxy)-8,8-dimethyl-N-(1H-pyrazol-3-ylsulfonyl)-6,7-dihydro-5H-quinoline-3-carboxamide], for which the EC30 entry is given as “+++ (“+++” means <3 uM)”.

The values are drawn from patent US10758534B2 (Vertex Pharmaceuticals Incorporated, priority 2014, dated 2020).
